The text below walks through data of US9469615B2, “Quinoxalines and AZA-quinoxalines as CRTH2 receptor modulators” (Merck Sharp & Dohme Corp., priority 2010, dated 2016).

In the first test the target is T1, hCRTH2 (Homo sapiens, UniProt Q9Y5Y4).
T1 construct: expressed in transfected cells; host or cells: HEK (human embryonic kidney) cells expressing hCRTH2; membrane preparation
T1 sequence (Q9Y5Y4 1-395): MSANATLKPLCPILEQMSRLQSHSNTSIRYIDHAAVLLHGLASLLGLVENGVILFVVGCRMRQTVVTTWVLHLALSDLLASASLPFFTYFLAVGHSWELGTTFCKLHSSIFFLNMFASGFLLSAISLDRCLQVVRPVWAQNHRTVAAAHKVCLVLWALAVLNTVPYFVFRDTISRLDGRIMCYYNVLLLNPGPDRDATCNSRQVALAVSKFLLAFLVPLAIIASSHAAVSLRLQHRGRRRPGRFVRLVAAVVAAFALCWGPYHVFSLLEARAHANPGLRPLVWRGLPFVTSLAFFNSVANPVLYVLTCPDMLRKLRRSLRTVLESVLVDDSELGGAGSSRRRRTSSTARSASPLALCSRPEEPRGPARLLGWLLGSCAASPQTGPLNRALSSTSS
The test is described as follows: Radioligand binding assay ([3H]PGD2 competition, HEK-hCRTH2 membranes). Conditions: [3H]PGD2 binding, rated A-E (Table A). The procedure, abridged:
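HEK-hCRTH2 membranes, 8-20 μg; [3H]PGD2 3.0 nM; 50 mM Tris-HCl pH 7.4/1 mM EDTA/2 mM MnCl2; DMSO 1%; 60 min RT; NSB 10 μM PGD2; filtration, scintillation counting.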
Broadly, the Ki is a dissociation constant, usually derived from enzyme kinetics or from competition with a known ligand. The molecule `C[C@@H](NC(=O)c1ccc2nc(-c3ccc(Cl)cc3)c(CCCCC(=O)O)nc2c1)c1ccccc1` [16AL, 3-(4-chlorophenyl)-7-[[(1(R)-phenylethyl)amino]carbonyl]-2-quinoxalinepentanoic acid] returned a Ki of 0.1 to 2 nM.

On to `C[C@H](NC(=O)c1ccc2nc(-c3ccc(Cl)cc3)c(CCCCC(=O)O)nc2c1)c1ccccc1` [16AM, 3-(4-chlorophenyl)-7-[[(1-(S)-phenylethyl)amino]carbonyl]-2-quinoxalinepentanoic acid], for which the Ki was 0.1 to 2 nM. Turning to `O=C(O)CCCCc1nc2cc(C(=O)N[C@H]3CCCc4ccccc43)ccc2nc1-c1ccc(Cl)cc1` [16AN, 3-(4-chlorophenyl)-7-[[(1,2,3,4-tetrahydro-1(S)-naphthalenyl)amino]carbonyl]-2-quinoxalinepentanoic acid], the inhibition constant (Ki) was 0.1 to 2 nM.

Consider `O=C(O)CCCCc1nc2cc(C(=O)N[C@H]3CCc4ccccc43)ccc2nc1-c1ccc(Cl)cc1` [16AP, 3-(4-chlorophenyl)-7-[[(2,3-dihydro-1H-inden-1(S)-yl)amino]carbonyl]-2-quinoxalinepentanoic acid], for which the Ki is 0.1 to 2 nM.

Molecule `Cc1ccc(CNC(=O)c2ccc3nc(-c4ccc(Cl)cc4)c(CCCCC(=O)O)nc3c2)cc1` [16AQ, 3-(4-chlorophenyl)-7-[[[(4-methylphenyl)methyl]amino]carbonyl]-2-quinoxalinepentanoic acid] yielded an inhibition constant Ki of 0.1 to 2 nM. For `O=C(O)CCCCc1nc2cc(C(=O)N[C@@H](CCO)c3ccccc3)ccc2nc1-c1ccc(Cl)cc1` [16AR, 3-(4-chlorophenyl)-7-[[(3-hydroxy-1(S)-phenylpropyl)amino]carbonyl]-2-quinoxalinepentanoic acid], the inhibitory constant (Ki) was in the range of 2.1 to 20 nM.

As for `O=C(O)CCCCc1nc2cc(C(=O)NC3Cc4ccccc4C3)ccc2nc1-c1ccc(Cl)cc1` [16AS, 3-(4-ch1orophenyl)-7-[[(2,3-dihydro-1H-inden-2-yl)amino]carbonyl]-2-quinoxalinepentanoic acid], the Ki was in the range of 0.1 to 2 nM. `O=C(O)CCCCc1nc2cc(C(=O)NC3CCCc4ccccc43)ccc2nc1-c1ccc(Cl)cc1` (stereo not drawn) [16Ai, 3-(4-chlorophenyl)-7-[[(1,2,3,4-tetrahydro-1-naphthalenyl)amino]carbonyl]-2-quinoxalinepentanoic acid]: the inhibition constant Ki is 0.1 to 2 nM. On the same count and under the same terms, next, `O=C(O)CCCCc1nc2cc(C(=O)N[C@@H]3CCc4ccccc43)ccc2nc1-c1ccc(Cl)cc1` [16Ao, 3-(4-chlorophenyl)-7-[[(2,3-dihydro-1H-inden-1(R)-yl)amino]carbonyl]-2-quinoxalinepentanoic acid]: 0.1 to 2 nM; `O=C(O)CCCCc1nc2cc(C(=O)NCc3cccc(Cl)c3)ccc2nc1-c1ccc(Cl)cc1` [16F, 3-(4-chlorophenyl)-7-[[[(3-chlorophenyl)methyl]amino]carbonyl]-2-quinoxalinepentanoic acid]: 0.1 to 2 nM; `O=C(O)CCCCc1nc2cc(C(=O)NCc3ccccc3)ccc2nc1-c1ccc(Cl)cc1` [16G, 3-(4-chlorophenyl)-7-[[(phenylmethyl)amino]car-bonyl]-2-quinoxalinepentanoic acid]: 0.1 to 2 nM. As to `O=C(O)CCCCc1nc2cc(C(=O)N3CCC(c4ccccc4)C3)ccc2nc1-c1ccc(Cl)cc1` (stereo not drawn) [16H, 3-(4-chlorophenyl)-7-[(3-phenyl-1-pyrrolidinyl)carbonyl]-2-quinoxalinepentanoic acid], the Ki fell in the range of 0.1 to 2 nM. The molecule `O=C(O)CCCCc1nc2cc(C(=O)N3CCC(c4ccccc4)CC3)ccc2nc1-c1ccc(Cl)cc1` [16J, 3-(4-chlorophenyl)-7-[(4-phenyl-1-piperidinyl)carbonyl]-2-quinoxalinepentanoic acid] registered a Ki of 2.1 to 20 nM. `N#Cc1ccc(CNC(=O)c2ccc3nc(-c4ccc(Cl)cc4)c(CCCCC(=O)O)nc3c2)cc1` [16K, 3-(4-chlorophenyl)-7-[[[(4-cyanophenyl)methyl]amino]carbonyl]-2-quinoxalinepentanoic acid]: the inhibitory constant (Ki) lay within 0.1 to 2 nM.

Still in this test, the particulars now being: [3H]PGD2 binding, values in text.
Consider `O=C(O)CCCCc1nc2cc(C(=O)N[C@@H]3CCc4ccccc43)ccc2nc1-c1ccc(Cl)cc1` [16Ao, 3-(4-chlorophenyl)-7-[[(2,3-dihydro-1H-inden-1(R)-yl)amino]carbonyl]-2-quinoxalinepentanoic acid], for which the affinity, expressed as Ki, was 0.4 nM.
